From ChEMBL document CHEMBL1212898 (J Med Chem, 2010)

Columns and labels:
Rattus norvegicus [1] = species on record: Rattus norvegicus; experiment: Selectivity ratio of Ki for NET in rat brain frontal cortex to Ki for SERT in rat brain stem; format: tissue-based
[2] = target: Sodium-dependent dopamine transporter (Rattus norvegicus, UniProt P23977); experiment: Displacement of [3H]WIN-35428 from DAT in rat caudate-putamen by scintillation counting; format: tissue-based
Rattus norvegicus [3] = species on record: Rattus norvegicus; experiment: Selectivity ratio of Ki for DAT in rat caudate-putamen to Ki for SERT in rat brain stem; format: tissue-based
Transporter = Transporter (Rattus norvegicus, UniProt Q63380); experiment: Displacement of [3H]nisoxetine from NET in rat frontal cortex by scintillation counting; format: tissue-based
[4] = target: Sodium-dependent serotonin transporter (Rattus norvegicus, UniProt P31652); experiment: Displacement of [3H]citalopram from SERT in rat brain stem by scintillation counting; format: tissue-based
[5] = Displacement of [3H]leucine from Leucine transporter

Transporter, sequence (Q63380 whole entry): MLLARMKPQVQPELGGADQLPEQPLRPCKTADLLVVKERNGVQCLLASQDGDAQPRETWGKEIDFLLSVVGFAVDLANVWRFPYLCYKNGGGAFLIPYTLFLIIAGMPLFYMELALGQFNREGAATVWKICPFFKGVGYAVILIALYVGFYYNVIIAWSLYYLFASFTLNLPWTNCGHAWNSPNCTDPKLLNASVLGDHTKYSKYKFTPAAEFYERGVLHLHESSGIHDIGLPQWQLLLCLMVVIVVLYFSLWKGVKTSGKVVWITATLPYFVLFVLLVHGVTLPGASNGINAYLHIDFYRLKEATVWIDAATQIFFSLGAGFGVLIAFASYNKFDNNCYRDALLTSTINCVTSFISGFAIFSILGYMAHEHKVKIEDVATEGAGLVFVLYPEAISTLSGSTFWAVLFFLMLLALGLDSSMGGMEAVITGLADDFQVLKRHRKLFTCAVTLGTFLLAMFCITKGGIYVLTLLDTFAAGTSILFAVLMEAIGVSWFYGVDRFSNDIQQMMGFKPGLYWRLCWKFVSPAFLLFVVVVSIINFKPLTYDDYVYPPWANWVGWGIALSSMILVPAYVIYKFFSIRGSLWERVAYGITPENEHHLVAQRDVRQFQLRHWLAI
Sodium-dependent serotonin transporter, sequence (P31652 whole entry): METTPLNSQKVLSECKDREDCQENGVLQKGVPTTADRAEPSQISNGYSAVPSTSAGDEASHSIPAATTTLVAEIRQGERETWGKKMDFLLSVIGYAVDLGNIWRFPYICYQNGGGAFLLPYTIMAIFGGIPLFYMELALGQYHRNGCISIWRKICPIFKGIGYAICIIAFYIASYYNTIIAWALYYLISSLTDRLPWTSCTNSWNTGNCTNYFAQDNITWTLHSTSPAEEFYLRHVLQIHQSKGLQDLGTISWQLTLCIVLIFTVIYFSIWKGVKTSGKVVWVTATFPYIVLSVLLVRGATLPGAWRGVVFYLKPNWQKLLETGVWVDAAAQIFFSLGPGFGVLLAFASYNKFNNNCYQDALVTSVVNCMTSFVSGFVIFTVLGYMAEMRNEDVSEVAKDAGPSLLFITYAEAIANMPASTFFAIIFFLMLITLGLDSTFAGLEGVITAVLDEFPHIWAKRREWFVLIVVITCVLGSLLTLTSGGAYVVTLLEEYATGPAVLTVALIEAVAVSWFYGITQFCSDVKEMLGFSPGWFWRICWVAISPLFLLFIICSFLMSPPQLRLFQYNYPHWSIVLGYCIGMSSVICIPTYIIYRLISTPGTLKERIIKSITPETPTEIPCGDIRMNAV
Sodium-dependent dopamine transporter, sequence (P23977 whole entry): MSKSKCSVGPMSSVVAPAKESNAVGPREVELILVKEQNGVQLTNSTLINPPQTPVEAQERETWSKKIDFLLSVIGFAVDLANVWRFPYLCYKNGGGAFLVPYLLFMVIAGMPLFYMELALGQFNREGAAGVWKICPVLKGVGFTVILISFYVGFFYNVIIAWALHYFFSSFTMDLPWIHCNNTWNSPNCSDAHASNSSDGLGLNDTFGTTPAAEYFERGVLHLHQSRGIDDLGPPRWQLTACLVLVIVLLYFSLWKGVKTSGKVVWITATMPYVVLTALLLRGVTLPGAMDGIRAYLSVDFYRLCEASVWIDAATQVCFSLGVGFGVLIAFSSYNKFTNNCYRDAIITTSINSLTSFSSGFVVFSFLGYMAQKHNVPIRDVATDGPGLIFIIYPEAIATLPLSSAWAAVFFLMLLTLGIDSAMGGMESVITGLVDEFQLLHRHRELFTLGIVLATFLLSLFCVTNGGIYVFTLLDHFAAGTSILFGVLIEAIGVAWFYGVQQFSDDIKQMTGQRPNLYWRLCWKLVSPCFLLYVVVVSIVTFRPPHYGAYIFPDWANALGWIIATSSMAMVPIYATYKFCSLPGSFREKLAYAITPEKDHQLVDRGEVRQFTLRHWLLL

| Structure (SMILES) | Ratio Ki (Rattus norvegicus [1]) | Ki [2] | Ratio Ki (Rattus norvegicus [3]) | Ki (Transporter) | Ki [4] | IC50 [5] |
| --- | --- | --- | --- | --- | --- | --- |
| CN(C)CCC[C@]1(c2ccc(F)cc2)OCc2cc(/C=C/c3ccccc3)ccc21 | 46 | 0.541 µM | 4.79 | 5.19 µM | 0.113 µM | – |
| CN(C)CCCC1(c2ccc(F)cc2)OCc2cc(CCc3ccccc3)ccc21 (configuration not stated) | – | – | – | 4.63 µM | 0.0381 µM | – |
| CN(C)CCC[C@@]1(c2ccc(F)cc2)OCc2cc(C#N)ccc21 [ESCITALOPRAM] | – | – | – | – | – | 1560 µM |
| CN(C)CCC[C@@]1(c2ccc(F)cc2)OCc2cc(/C=C/c3ccccc3)ccc21 | 1590 | 1.81 µM | 171 | 16.8 µM | 0.0106 µM | – |
| CN(C)CCCC1(c2ccc(F)cc2)OCc2cc(-c3cccc(Cl)c3)ccc21 (configuration not stated) | 93 | 1.39 µM | 23 | 5.71 µM | 0.0612 µM | – |
| CN(C)CCCC1(c2ccc(F)cc2)OCc2cc(-c3ccccc3)ccc21 (configuration not stated) | 423 | 1.8 µM | 45 | 16.9 µM | 0.04 µM | – |
| COc1cccc(-c2ccc3c(c2)COC3(CCCN(C)C)c2ccc(F)cc2)c1 (configuration not stated) | – | – | – | 2.61 µM | 0.0092 µM | – |
| CN(C)CCCC1(c2ccc(F)cc2)OCc2c(Br)cccc21 (configuration not stated) | 1590 | 0.216 µM | 56 | 6.17 µM | 0.00387 µM | – |
| CN(C)CCCC1(c2ccc(F)cc2)OCc2c(-c3ccccc3)cccc21 (configuration not stated) | 1410 | 0.542 µM | 107 | 7.16 µM | 0.00507 µM | – |
| CN(C)CCCC1(c2ccc(F)cc2)OCc2cc(/C=C/c3ccc(Cl)cc3)ccc21 (configuration not stated) | 747 | 2 µM | 60 | 25.1 µM | 0.0336 µM | – |
| CN(C)CCCC1(c2ccc(F)cc2)OCc2cc(/C=C/c3ccccc3)ccc21 (racemic) | 1220 | 0.836 µM | 90 | 11.4 µM | 0.00932 µM | – |
| CN(C)CCCC1(c2ccc(F)cc2)OCc2cc(-c3cc(F)cc(F)c3)ccc21 (configuration not stated) | – | – | – | 2 µM | 0.108 µM | – |
| CN(C)CCCC1(c2ccc(F)cc2)OCc2c(-c3cccc(F)c3)cccc21 (configuration not stated) | 933 | 0.49 µM | 60 | 7.67 µM | 0.00822 µM | – |
| CN(C)CCCC1(c2ccc(F)cc2)OCc2c(/C=C/c3ccccc3)cccc21 (configuration not stated) | 256 | 1.14 µM | 25 | 11.9 µM | 0.0464 µM | – |
| CN(C)CCCC1(c2ccc(F)cc2)OCc2cc(-c3cccc(N)c3)ccc21 (configuration not stated) | – | 1.69 µM | – | – | 0.0104 µM | – |
| CN(C)CCCC1(c2ccc(F)cc2)OCc2cc(-c3cccc(F)c3)ccc21 (configuration not stated) | – | – | – | 4.2 µM | 0.0218 µM | – |
| CN(C)CCCC1(c2ccc(F)cc2)OCc2cc(-c3cccc(C#N)c3)ccc21 (configuration not stated) | 743 | 0.737 µM | 110 | 4.98 µM | 0.0067 µM | – |
| CN(C)CCCC1(c2ccc(F)cc2)OCc2cc(Br)ccc21 (racemic) | – | – | – | 28.4 µM | 0.00104 µM | – |
| CN(C)CCC[C@@]1(c2ccc(F)cc2)OCc2cc(Br)ccc21 | 9140 | 2.25 µM | 2450 | 8.41 µM | 0.00092 µM | 400 µM |
| CN(C)CCC[C@]1(c2ccc(F)cc2)OCc2cc(Br)ccc21 | 915 | 1.35 µM | 57 | 21.6 µM | 0.0236 µM | 420 µM |
| CN(C)CCCC1(c2ccc(F)cc2)OCc2cc(-c3ccc(Cl)c(Cl)c3)ccc21 (configuration not stated) | 89 | 2.51 µM | 18 | 12.7 µM | 0.143 µM | – |
| CN(C)CCCC1(c2ccc(F)cc2)OCc2cc(I)ccc21 (configuration not stated) | – | 1.35 µM | – | – | 0.00142 µM | – |
